{"source": "ChEMBL document CHEMBL4627253", "about": "“Relationship among structure, cytotoxicity, and Michael acceptor reactivity of quinocidin” (Bioorg Med Chem, 2020)", "data": [{"tested_on": "HEK293", "assay": "Cytotoxicity against HEK293 cells assessed as cell growth incubated for 48 hrs by MTT assay", "format": "cell-based", "settings": "Homo sapiens, HEK293, 48 h", "units": {"IC50": "nM"}, "values": [{"compound": "CNC(=O)CCCCCc1c(C)cc(C)c2[n+]1CC(C)C=C2", "note": "(stereo not drawn)", "IC50": "> 30000"}, {"compound": "CCCC/C=C(\\C)c1c(C)cc(C)c2[n+]1CC(C)C=C2", "note": "(stereo not drawn)", "IC50": 1700}]}, {"tested_on": "HeLa S3", "assay": "Cytotoxicity against human HeLaS3 cells assessed as cell growth incubated for 48 hrs by MTT assay", "format": "functional, cell-based", "settings": "HeLa S3, 48 h", "units": {"IC50": "nM"}, "values": [{"compound": "CCCCCC/C=C/c1c(C)cc(C)c2[n+]1CC(C)C=C2", "note": "(stereo not drawn)", "IC50": 170}, {"compound": "CCCC/C=C(\\C)c1nc(/C=C\\C(C)C)c(C)cc1C", "IC50": "> 30000"}, {"compound": "CNC(=O)CCCCCc1c(C)cc(C)c2[n+]1CC(C)C=C2", "note": "(stereo not drawn)", "IC50": "> 30000"}, {"compound": "CCCCCCc1c(C)cc(C)c2[n+]1CC(C)C=C2", "note": "(stereo not drawn)", "IC50": 470}, {"compound": "CCCC/C=C/c1c(C)cc(C)c2[n+]1CC(C)CC2", "note": "(stereo not drawn)", "IC50": 580}, {"compound": "CCCCCCCCCC/C=C/c1c(C)cc(C)c2[n+]1CC(C)C=C2", "note": "(stereo not drawn)", "IC50": 52}, {"compound": "CCCCCCCCCCCCCC/C=C/c1c(C)cc(C)c2[n+]1CC(C)C=C2", "note": "(stereo not drawn)", "IC50": 58}, {"compound": "CC/C=C/c1c(C)cc(C)c2[n+]1CC(C)C=C2", "note": "(stereo not drawn)", "IC50": 2000}, {"compound": "CCCC/C=C(\\C)c1c(C)cc(C)c2[n+]1CCC=C2", "IC50": 680}, {"compound": "CCCCCCCCCCCC/C=C/c1c(C)cc(C)c2[n+]1CC(C)C=C2", "note": "(stereo not drawn)", "IC50": 38}, {"compound": "CCCC/C=C/c1c(C)cc(C)c2[n+]1CC(C)C=C2", "note": "(stereo not drawn)", "IC50": 370}, {"compound": "CCCC/C=C(\\C)c1c(C)cc(C)c2[n+]1CC(C)CC2", "note": "(stereo not drawn)", "IC50": 360}, {"compound": "CCCC/C=C(\\C)c1c(C)cc(C)c2[n+]1CC(C)C=C2", "note": "(stereo not drawn)", "IC50": 640}, {"compound": "CCCC/C=C(\\C)c1c(C)cc(C)c[n+]1CCCC", "IC50": 720}, {"compound": "CCCCCCCC/C=C/c1c(C)cc(C)c2[n+]1CC(C)C=C2", "note": "(stereo not drawn)", "IC50": 51}]}, {"tested_on": "HeLa S3", "assay": "Cytotoxicity against human HeLaS3 cells assessed as reduction in cell viability", "format": "functional, cell-based", "settings": "not given", "units": {"IC50": "nM"}, "values": [{"compound": "C1=Cc2cccc[n+]2CC1", "IC50": "> 30000"}]}]}
